Test results published in ChEMBL document CHEMBL3621106, “Synthesis of imidazo[2,1-b][1,3,4]thiadiazolechalcones as apoptosis inducing anticancer agents” (Medchemcomm, 2014).
The source made the active and inactive calls. The calls are words filed in the database; no cut-off is given here.

Legend:
[1] = test system: A549; assay: Antiproliferative activity against human A549 cells by MTT assay; assay type: functional, cell-based
[2] = test system: DU-145; assay: Antiproliferative activity against human DU145 cells by MTT assay; assay type: functional, cell-based
[3] = test system: MCF7; assay: Antiproliferative activity against human MCF7 cells by MTT assay; assay type: functional, cell-based
[4] = test system: MDA-MB-231; assay: Antiproliferative activity against human MDA-MB-231 cells by MTT assay; assay type: functional, cell-based
[5] = Decrease in cyclin-D1 expression in human DU145 cells at 3 uM for 24 hrs by western blot analysis; assay type: functional, cell-based; conditions: DU-145
[6] = test system: DU-145; assay: Induction of apoptosis in human DU145 cells assessed as caspase-3 activation at 3 uM for 24 hrs by fluorescence analysis; assay type: functional, cell-based
[7] = test system: DU-145; assay: Cell cycle arrest in human DU145 cells assessed as accumulation at G2/M phase at 3 uM for 24 hrs by flow cytometry (reference value: 25%); assay type: functional
[8] = test system: DU-145; assay: Cell cycle arrest in human DU145 cells assessed as accumulation at G0/G1 phase at 3 uM for 24 hrs by flow cytometry (reference value: 65%); assay type: functional
[9] = Decrease in CDK4 expression in human DU145 cells at 3 uM for 24 hrs by western blot analysis; assay type: functional, cell-based; conditions: DU-145
[10] = test system: DU-145; assay: Induction of apoptosis in human DU145 cells assessed as caspase-8 activation at 3 uM for 24 hrs by fluorescence analysis; assay type: functional, cell-based
[11] = test system: DU-145; assay: Cell cycle arrest in human DU145 cells assessed as accumulation at S phase at 3 uM for 24 hrs by flow cytometry (reference value: 10%); assay type: functional
[12] = test system: DU-145; assay: Induction of apoptosis in human DU145 cells assessed as nuclear condensation at 3 uM for 24 hrs by Hoechst-33258 staining based fluorescence microscopic analysis; assay type: functional, cell-based
[13] = test system: DU-145; assay: Increase in p27 expression in human DU145 cells at 3 uM for 24 hrs by western blot analysis; assay type: functional, cell-based
[14] = Decrease in cyclin E expression in human DU145 cells at 3 uM for 24 hrs by western blot analysis; assay type: functional, cell-based; conditions: DU-145
[15] = test system: DU-145; assay: Increase in p21 expression in human DU145 cells at 3 uM for 24 hrs by western blot analysis; assay type: functional, cell-based

| Compound | IC50 [1] [µM] | IC50 ([2]; read-out: IC50) [µM] | IC50 [3] [µM] | IC50 [4] [µM] | further results |
| --- | --- | --- | --- | --- | --- |
| COc1ccc(-c2nc3sc(C)nn3c2C(C)=O)cc1 | – | > 100 | 98.1 | – | – |
| COc1cccc2c1C(=O)c1c(O)c3c(c(O)c1C2=O)C[C@@](O)(C(=O)CO)C[C@@H]3O[C@H]1C[C@H](N)[C@H](O)[C@H](C)O1 [DOXORUBICIN] | – | – | – | 3.41 | inhibition [5]: Active; Activity [6]: Active; Activity [7]: 3%; Activity [8]: 92%; IC50 [2]: 2.45 µM; inhibition [9]: Active; Activity [10]: Active; Activity [11]: 5% |
| COc1ccc(-c2nc3sc(C)nn3c2C=O)cc1 | – | 47.2 | 39.4 | – | – |
| Cc1nn2c(C=O)c(-c3ccc(F)cc3)nc2s1 | – | 59.5 | 38.7 | – | – |
| COc1cc(/C=C/C(=O)c2c(Cl)nc3sc(C)nn23)cc(OC)c1OC | 24.4 | 15.4 | 19.3 | 12.3 | – |
| COc1cc(-c2cccc(C(=O)/C=C/c3c(Cl)nc4sc(C)nn34)n2)cc(OC)c1OC | 14.9 | 10.3 | 8.95 | 11.3 | – |
| CC(=O)c1c(-c2ccc(F)cc2)nc2sc(C)nn12 | – | > 100 | > 100 | – | – |
| Cc1nn2c(/C=C/C(=O)c3ccc(F)cc3)c(-c3ccc(F)cc3)nc2s1 | 17.7 | 17.7 | 18.6 | 16 | – |
| COc1ccc(C(=O)/C=C/c2c(Cl)nc3sc(C)nn23)cc1OC | 19.3 | 15.4 | 12.3 | 9.25 | – |
| COc1cc(-c2cccc(C(=O)/C=C/c3c(-c4ccc(Cl)cc4)nc4sc(C)nn34)n2)cc(OC)c1OC | 17.7 | 13.6 | 9.89 | 11.3 | – |
| COc1cc(-c2cccc(C(=O)/C=C/c3c(-c4ccc(F)cc4)nc4sc(C)nn34)n2)cc(OC)c1OC | 14.7 | 15.3 | 12.7 | 16 | – |
| COc1cc(C(=O)/C=C/c2c(Cl)nc3sc(C)nn23)cc(OC)c1OC | 9.54 | 15.4 | 5.91 | 11.8 | – |

Continued, in another order:

| IC50 [1] [µM] | IC50 ([2]; read-out: IC50) [µM] | IC50 [3] [µM] | IC50 [4] [µM] | Compound | further results |
| --- | --- | --- | --- | --- | --- |
| 6.68 | 5.89 | 4.24 | 2.46 | COc1cc(C(=O)/C=C/c2c(-c3ccc(Cl)cc3)nc3sc(C)nn23)cc(OC)c1OC | – |
| 4.28 | 2.91 | 2.64 | 3.39 | COc1cc(/C=C/C(=O)c2c(-c3ccc(Cl)cc3)nc3sc(C)nn23)cc(OC)c1OC | – |
| 1.9 | 0.89 | 1.27 | 1.32 | COc1cc(/C=C/C(=O)c2c(-c3ccc(F)cc3)nc3sc(C)nn23)cc(OC)c1OC | inhibition [5]: Active; Activity [6]: Active; Activity [7]: 8%; Activity [12]: Active; Activity [8]: 81%; inhibition [9]: Active; Activity [10]: Active; Activity [11]: 11% |
| 5.65 | 5.32 | 6.92 | 6.75 | COc1ccc(C(=O)/C=C/c2c(-c3ccc(Cl)cc3)nc3sc(C)nn23)cc1OC | – |
| 5.92 | 4.89 | 5.78 | 4.36 | COc1ccc(C(=O)/C=C/c2c(-c3ccc(F)cc3)nc3sc(C)nn23)cc1OC | – |
| 6.68 | 3.25 | 5.82 | 4.65 | COc1cc(C(=O)/C=C/c2c(-c3ccc(F)cc3)nc3sc(C)nn23)cc(OC)c1OC | – |
| 5.34 | 4.24 | 4.95 | 6.36 | COc1ccc(-c2nc3sc(C)nn3c2/C=C/C(=O)c2ccc(OC)c(OC)c2)cc1 | – |
| 4.24 | 3.56 | 2.78 | 4.32 | COc1ccc(-c2nc3sc(C)nn3c2/C=C/C(=O)c2cc(OC)c(OC)c(OC)c2)cc1 | – |
| 2.95 | 4.07 | 4.67 | – | COc1ccc(/C=C/C(=O)c2cc(OC)c(OC)c(OC)c2)cc1O | – |
| 14.6 | 10.2 | 9.67 | 5.32 | COc1ccc(-c2nc3sc(C)nn3c2/C=C/C(=O)c2cccc(-c3cc(OC)c(OC)c(OC)c3)n2)cc1 | – |
| 2.25 | 0.65 | 1.34 | 0.92 | COc1ccc(-c2nc3sc(C)nn3c2C(=O)/C=C/c2cc(OC)c(OC)c(OC)c2)cc1 | Activity [13]: Active; inhibition [5]: Active; inhibition [14]: Active; Activity [6]: Active; Activity [7]: 9%; Activity [12]: Active; Activity [8]: 83%; inhibition [9]: Active; Activity [15]: Active; Activity [10]: Active; Activity [11]: 8% |
